# Assay results from patent US20030215462A1, “Use of UGT inhibitors to increase bioavailability” (priority 2001, published 2003).
# Values joined by “and” are separate entries in the source; they are usually repeats but may differ in a detail not shown here. Equal values may be shown once.
# Columns and labels:
# [1] = molecular target: T1, UGT enzymes of human liver microsomes; experiment: Inhibition of 7-HFC glucuronidation in human liver microsomes; format: biochemical; settings: for % of control metabolism (SD, n = 3), 7-HFC glucuronidation: human liver microsomes 100 μg/ml
# T1 construct: percentage of control metabolism, 7-HFC glucuronidation; percentage of control metabolism, 7-HFC glucuronidation
# [2] = system: UGT enzymes of human liver microsomes; experiment: Inhibition of raloxifene glucuronidation (G1, G2) in human liver microsomes; format: biochemical; settings: for % of control metabolism (SD, n = 3), raloxifene glucuronide G1 / % of control metabolism (SD, n = 3), raloxifene glucuronide G2: human liver microsomes 250 μg/ml, 15 min
# Source text: (§1) Compounds were eluted using a binary solvent gradient system. […] Solvent B was methanol. […] Detection was at 280 nm.
# [3] = system: UGT enzymes of pooled human jejunum microsomes; experiment: Inhibition of raloxifene glucuronidation (G1, G2) in pooled human jejunum microsomes; format: biochemical; settings: jejunum HJ61; inhibitor 50 μM
# Experimental: as §1
# Standardized incubations utilized […] microsomal protein, 1 mM UDPGA and a 30 min incubation time.
# [4] = system: UGT enzymes of human liver microsomes; experiment: Inhibition of estradiol (E2) glucuronidation in human liver microsomes; format: biochemical; settings: liver 062101; E2 50 μM; inhibitor 50 μM
# Source text: (§2) Compounds were eluted using a binary solvent gradient system where solvent A was dilute phosphoric acid (pH 3) and solvent B was 80:20 acetonitrile-methanol. […] Detection was at 280 nm.
# [5] = system: T2, UGT enzymes of human liver microsomes; experiment: as above; format: biochemical; settings: liver 032101; E2 50 μM; inhibitor 50 μM
# T2 construct: residual metabolism (% of control), E2-17-β-D-glucuronide; other: liver 032101; residual metabolism (% of control), E2-17-β-D-glucuronide
# Source text: as §2
# [6] = system: T3, UGT enzymes of human liver microsomes; experiment: as above; format: biochemical; settings: liver 032101; E2 50 μM; inhibitor 50 μM
# T3 construct: residual metabolism (% of control), E2-3-β-D-glucuronide; other: liver 032101; residual metabolism (% of control), E2-3-β-D-glucuronide
# Source text: as §2
# [7] = system: UGT enzymes of pooled human jejunum microsomes; experiment: Inhibition of estradiol (E2) glucuronidation in pooled human jejunum microsomes; format: biochemical; settings: jejunum HJ61; E2 50 μM; inhibitor 50 μM
# Source text: as §2
# [8] = system: UGT enzymes of pooled human jejunum microsomes; experiment: Inhibition of 2ME2 glucuronidation (MG1) in pooled human jejunum microsomes; format: biochemical; settings: jejunum HJ61, 2ME2 50 μM
# Source text: as §2
# [9] = molecular target: T4, UGT1A3 (Homo sapiens, UniProt P35503); experiment: Inhibition of raloxifene glucuronidation by recombinant UGT1A3 Supersomes; settings: human; for activity at 15 min, 25 µM: inhibitor 25 μM; for activity at 15 min, 50 µM: inhibitor 50 μM
# T4 sequence (P35503 29-534): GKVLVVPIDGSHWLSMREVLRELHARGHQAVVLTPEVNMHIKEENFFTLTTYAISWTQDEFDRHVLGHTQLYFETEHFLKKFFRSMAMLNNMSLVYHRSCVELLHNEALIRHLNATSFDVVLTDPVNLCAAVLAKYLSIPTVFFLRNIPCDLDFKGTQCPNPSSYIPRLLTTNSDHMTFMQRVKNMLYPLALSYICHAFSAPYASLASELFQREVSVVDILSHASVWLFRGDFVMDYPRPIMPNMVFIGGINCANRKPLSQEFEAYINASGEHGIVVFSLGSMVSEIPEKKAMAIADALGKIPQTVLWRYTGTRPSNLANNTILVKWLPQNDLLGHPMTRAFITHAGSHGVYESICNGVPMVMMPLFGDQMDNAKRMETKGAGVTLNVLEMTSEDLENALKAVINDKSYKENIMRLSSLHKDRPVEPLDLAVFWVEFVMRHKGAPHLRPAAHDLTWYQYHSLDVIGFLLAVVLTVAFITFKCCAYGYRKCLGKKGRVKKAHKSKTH
# Experimental: Compounds were eluted using a binary solvent gradient system. Solvent A was water brought to pH 8 with NH4OH. Solvent B was methanol. Solvent flow rate was 1 ml/min and the column temperature was maintained at 50° C. Detection was at 280 nm. […] The system was then returned to the initial conditions and equilibrated for 3 min.
# [10] = molecular target: T5, UGT1A9 (Homo sapiens, UniProt O60656); experiment: Inhibition of raloxifene glucuronidation by recombinant UGT1A9 Supersomes; settings: for activity at 15 min, 25 µM / activity at 15 min, 50 µM: human, Supersomes with recombinant human UGT1A9, pH 7.5, probe raloxifene 50 μM; for Inhibition of raloxifene glucuronidation, UGT1A9, second line per inhibitor (G2): second line (G2, metabolite not given), raloxifene 50 μM, 250 μg/ml Supersomes, 1 mM UDPGA, 15 min
# T5 sequence (O60656 26-530): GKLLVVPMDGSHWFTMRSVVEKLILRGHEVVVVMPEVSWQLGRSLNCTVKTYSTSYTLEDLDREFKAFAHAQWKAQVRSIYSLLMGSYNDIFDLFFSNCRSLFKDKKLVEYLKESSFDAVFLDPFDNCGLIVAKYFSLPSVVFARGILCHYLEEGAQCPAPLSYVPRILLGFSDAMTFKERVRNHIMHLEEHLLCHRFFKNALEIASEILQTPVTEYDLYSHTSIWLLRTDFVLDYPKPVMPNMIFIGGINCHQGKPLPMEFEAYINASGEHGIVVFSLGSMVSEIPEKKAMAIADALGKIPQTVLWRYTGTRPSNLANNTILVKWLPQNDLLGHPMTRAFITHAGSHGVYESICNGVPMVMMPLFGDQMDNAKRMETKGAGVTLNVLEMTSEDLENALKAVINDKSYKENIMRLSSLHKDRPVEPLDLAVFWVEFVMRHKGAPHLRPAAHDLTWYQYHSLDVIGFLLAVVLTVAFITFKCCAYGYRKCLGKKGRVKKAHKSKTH
# [11] = inhibitor 10 μM, raloxifene 50 μM
# [12] = inhibitor 25 μM, raloxifene 50 μM
# [13] = inhibitor 50 μM, raloxifene 50 μM
# [14] = inhibitor 100 μM, raloxifene 50 μM
# [15] = inhibitor 500 μM, raloxifene 50 μM
# [16] = liver lot 032101, inhibitor 50 μM
# [17] = liver lot 062101, inhibitor 50 μM
# [18] = liver lot 083000, inhibitor 50 μM
# [19] = raloxifene 50 μM, inhibitor 10 μM
# [20] = raloxifene 50 μM, inhibitor 25 μM
# [21] = raloxifene 50 μM, inhibitor 50 μM
# [22] = raloxifene 50 μM, inhibitor 100 μM
# [23] = Supersomes with recombinant human UGT1A3, pH 7.5, probe raloxifene 50 μM, formation of glucuronide G1, % of control metabolism, raloxifene G1, UGT1A3
# [24] = Supersomes with recombinant human UGT1A3, pH 7.5, probe raloxifene 50 μM, formation of glucuronide G2, % of control metabolism, raloxifene G2, UGT1A3
# [25] = recombinant UGT1A3 Supersomes, pH 7.5, probe raloxifene 50 μM (formation of glucuronide G1), Inhibition of raloxifene glucuronidation, G1, UGT1A3, G1, raloxifene 50 μM, 250 μg/ml Supersomes, 1 mM UDPGA, 15 min
# [26] = recombinant UGT1A3 Supersomes, pH 7.5, probe raloxifene 50 μM (formation of glucuronide G2), Inhibition of raloxifene glucuronidation, G2, UGT1A3, G2, raloxifene 50 μM, 250 μg/ml Supersomes, 1 mM UDPGA, 15 min
compound,measurement,setting,value
O=C(O[C@@H]1Cc2c(O)cc(O)cc2O[C@H]1c1cc(O)c(O)c(O)c1)c1cc(O)c(O)c(O)c1 [Gallocatechin gallate],IC50,"[1]; 7-HFC 50 μM, 1 mM UDPGA, 15 min",100 µM
same,"percentage of control metabolism, 7-HFC glucuronidation",[1]; inhibitor 25 μM,80 (2) %
same,"% of control metabolism (SD, n = 3), 7-HFC glucuronidation","[1]; inhibitor 25 μM, 7-HFC 50 μM, 15 min",80 (2) %
same,"percentage of control metabolism, 7-HFC glucuronidation",[1]; inhibitor 50 μM,68 (2) %
same,"% of control metabolism (SD, n = 3), 7-HFC glucuronidation","[1]; inhibitor 50 μM, 7-HFC 50 μM, 15 min",68 (2) %
same,"percentage of control metabolism, 7-HFC glucuronidation",[1]; inhibitor 100 μM,54 (1) % and 46 (2) %
same,"% of control metabolism (SD, n = 3), 7-HFC glucuronidation","[1]; inhibitor 100 μM, 7-HFC 50 μM, 15 min",54 (1) % and 46 (2) %
same,"percentage of control metabolism, 7-HFC glucuronidation",[1]; inhibitor 200 μM,25 (0) %
same,"% of control metabolism (SD, n = 3), 7-HFC glucuronidation","[1]; inhibitor 200 μM, 7-HFC 50 μM, 15 min",25 (0) %
same,"percentage of control metabolism, 7-HFC glucuronidation",[1]; inhibitor 500 μM,0 (0) %
same,"% of control metabolism (SD, n = 3), 7-HFC glucuronidation","[1]; inhibitor 500 μM, 7-HFC 50 μM, 15 min",0 (0) %
same,"% of control metabolism (SD, n = 3), raloxifene glucuronide G1",[2]; [11],80 (6) %
same,"% of control metabolism (SD, n = 3), raloxifene glucuronide G1",[2]; [12],62 (7) %
same,"% of control metabolism (SD, n = 3), raloxifene glucuronide G1",[2]; [13],45 (2) %
same,"% of control metabolism (SD, n = 3), raloxifene glucuronide G1",[2]; [14],20 (1) %
same,"% of control metabolism (SD, n = 3), raloxifene glucuronide G1",[2]; [15],0 (0) %
same,"% of control metabolism (SD, n = 3), raloxifene glucuronide G2",[2]; [11],83 (4) %
same,"% of control metabolism (SD, n = 3), raloxifene glucuronide G2",[2]; [12],64 (4) %
same,"% of control metabolism (SD, n = 3), raloxifene glucuronide G2",[2]; [13],47 (2) %
same,"% of control metabolism (SD, n = 3), raloxifene glucuronide G2",[2]; [14],29 (1) %
same,"% of control metabolism (SD, n = 3), raloxifene glucuronide G2",[2]; [15],0 (0) %
same,"% of control metabolism, raloxifene G1",[2]; [16],29 (1) %
same,"% of control metabolism, raloxifene G2",[2]; [16],28 (0) %
same,"% of control metabolism, raloxifene G1",[2]; [17],40 (3) %
same,"% of control metabolism, raloxifene G2",[2]; [17],22 (1) %
same,"% of control metabolism, raloxifene G1",[2]; [18],45 (2) %
same,"% of control metabolism, raloxifene G2",[2]; [18],47 (2) %
same,"% of control metabolism, raloxifene G1",[2]; [19],80 (6) %
same,"% of control metabolism, raloxifene G2",[2]; [19],83 (4) %
same,"% of control metabolism, raloxifene G1",[2]; [20],62 (7) %
same,"% of control metabolism, raloxifene G2",[2]; [20],64 (4) %
same,"% of control metabolism, raloxifene G1",[2]; [21],45 (2) %
same,"% of control metabolism, raloxifene G2",[2]; [21],47 (2) %
same,"% of control metabolism, raloxifene G1",[2]; [22],20 (1) %
same,"% of control metabolism, raloxifene G2",[2]; [22],29 (1) %
same,"% of control metabolism, raloxifene G1",[3],"10 (0), 10 (0) %"
same,"% of control metabolism, raloxifene G2",[3],"10 (0), 10 (0) %"
same,"residual metabolism (% of control), E2-3-β-D-glucuronide",[4],33 (2) %
same,"residual metabolism (% of control), E2-17-β-D-glucuronide",[4],55 (2) %
same,"residual metabolism (% of control), E2-17-β-D-glucuronide",[5],69 (4) %
same,"residual metabolism (% of control), E2-3-β-D-glucuronide",[6],24 (1) %
same,"residual metabolism (% of control), E2-3-β-D-glucuronide",[7],25 (1) %
same,"residual metabolism (% of control), E2-17-β-D-glucuronide",[7],39 (1) %
same,"residual metabolism (% of control), 2ME2 MG1",[8]; inhibitor 10 μM,69 (3) %
same,"residual metabolism (% of control), 2ME2 MG1",[8]; inhibitor 25 μM,51 (2) %
same,"residual metabolism (% of control), 2ME2 MG1",[8]; inhibitor 50 μM,31 (1) %
same,"residual metabolism (% of control), 2ME2 MG1",[8]; inhibitor 100 μM,9 (1) %
same,"activity at 15 min, 25 µM",[9]; [23],65%
same,"activity at 15 min, 50 µM",[9]; [23],39%
same,"activity at 15 min, 25 µM",[9]; [24],70%
same,"activity at 15 min, 50 µM",[9]; [24],38%
same,"activity at 15 min, 25 µM",[9]; [25],64%
same,"activity at 15 min, 50 µM",[9]; [25],39%
same,"activity at 15 min, 25 µM",[9]; [26],70%
same,"activity at 15 min, 50 µM",[9]; [26],38%
same,"activity at 15 min, 25 µM","[10]; formation of glucuronide G1, % of control metabolism, raloxifene G1, UGT1A9, inhibitor 25 μM",72%
same,"activity at 15 min, 50 µM","[10]; formation of glucuronide G1, % of control metabolism, raloxifene G1, UGT1A9, inhibitor 50 μM",47%
same,"activity at 15 min, 25 µM","[10]; formation of glucuronide G2, % of control metabolism, raloxifene G2, UGT1A9, inhibitor 25 μM",63%
same,"activity at 15 min, 50 µM","[10]; formation of glucuronide G2, % of control metabolism, raloxifene G2, UGT1A9, inhibitor 50 μM",44%
same,"Inhibition of raloxifene glucuronidation, UGT1A9, second line per inhibitor (G2)",[10]; inhibitor 25 μM,63 (4)
same,"Inhibition of raloxifene glucuronidation, UGT1A9, second line per inhibitor (G2)",[10]; inhibitor 50 μM,44 (2)
